# Target: T1, human MDM2 (GST-hMDM2 1-188), interaction with biotinylated-p53 (1-83) (Homo sapiens, UniProt Q00987)
# T1 construct: Amino acid residues 1-188 of human MDM2 were expressed; made in house; host or cells: Escherichia coli
# Test: improved HTRF assay (HTRF2 assay), inhibition of HDM2-p53 interaction
# Assay type: binding
# Conditions: 0.2 nM GST-hMDM2, 0.5 nM biotinylated-p53, 100 mM KF
# Outline: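 GST-hMDM2 preincubated 20 min at RT with serially diluted compound, then biotinylated p53 (1-83, E. coli) added for 60 min. Detection with SA-XLent, anti-GST cryptate and KF, equilibrated >4 h; final DMSO 2%. TR-FRET read; % inhibition calculated relative to nutlin-3.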
# T1 sequence (Q00987 1-188): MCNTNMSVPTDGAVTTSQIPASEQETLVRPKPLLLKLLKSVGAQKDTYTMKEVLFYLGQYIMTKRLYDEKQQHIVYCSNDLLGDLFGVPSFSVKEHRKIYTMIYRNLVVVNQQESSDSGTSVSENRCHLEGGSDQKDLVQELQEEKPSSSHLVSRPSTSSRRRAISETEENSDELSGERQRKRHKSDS
row,Molecule,IC50 [nM]
1,"C[C@@H](CS(=O)(=O)C(C)(C)C)N1C(=O)[C@@H](CC(=O)N(C)C)O[C@H](c2cccc(Cl)c2)[C@H]1c1ccc(Cl)cc1 (single isomer, unassigned) [Example 232, 2-((2R,5R,6R)-4-((S)-1-(tert-butylsulfonyl)propan-2-yl)-6-(3-chlorophenyl)-5-(4-chlorophenyl)-3-oxomorpholin-2-yl)-N,N-dimethylacetamide or 2-((2S,5R,6R)-4-((S)-1-(tert-butylsulfonyl)propan-2-yl)-6-(3-chlorophenyl)-5-(4-chlorophenyl)-3-oxomorpholin-2-yl)-N,N-dimethylacetamide]",31
2,"CC[C@@H](CN(c1ccccn1)S(=O)(=O)C1CC1)N1C(=O)[C@H](CC(=O)O)O[C@H](c2cccc(Cl)c2)[C@H]1c1ccc(Cl)cc1 (single isomer, unassigned) [Example 180, 2-((2S,5R,6R)-6-(3-chlorophenyl)-5-(4-chlorophenyl)-3-oxo-4-((S)-1-(N-(pyridin-2-yl)cyclopropanesulfonamido)butan-2-yl)morpholin-2-yl)acetic acid or 2-((2R,5R,6R)-6-(3-chlorophenyl)-5-(4-chlorophenyl)-3-oxo-4-((S)-1-(N-(pyridin-2-yl)cyclopropanesulfonamido)butan-2-yl)morpholin-2-yl)acetic acid]",< 1
3,"CC(C)(C)S(=O)(=O)C[C@H](C1CC1)N1C(=O)[C@@H](CC(=O)O)O[C@H](c2ccc(Cl)c(Cl)c2)[C@H]1c1ccc(Cl)cc1 (single isomer, unassigned) [Example 319, 2-((2R,5R,6R)-4-((S)-2-(tert-Butylsulfonyl)-1-cyclopropylethyl)-5-(4-chlorophenyl)-6-(3,4-dichlorophenyl)-3-oxomorpholin-2-yl)acetic acid or 2-((2S,5R,6R)-4-((S)-2-(tert-butylsulfonyl)-1-cyclopropylethyl)-5-(4-chlorophenyl)-6-(3,4-dichlorophenyl)-3-oxomorpholin-2-yl)acetic acid]",113
4,"Methyl 2-((2R,5R,6R)-6-(3-chlorophenyl)-5-(4-chlorophenyl)-4-((S)-1-((2-(dimethylamino)ethyl)sulfonyl)butan-2-yl)-3-oxomorpholin-2-yl)acetate and methyl 2-((2S,5R,6R)-6-(3-chlorophenyl)-5-(4-chlorophenyl)-4-((S)-1-((2-(dimethylamino)ethyl)sulfonyl)butan-2-yl)-3-oxomorpholin-2-yl)acetate [Example 246]",6
5,"CC(C)S(=O)(=O)[C@H]1CCC[C@@H]1N1C(=O)[C@@H](CC(=O)O)O[C@H](c2cccc(Cl)c2)[C@H]1c1ccc(Cl)cc1 (single isomer, unassigned) [Example 421]",13600
6,"CC[C@@H](CS(=O)(=O)C(C)(C)C)N1C(=O)[C@@H](CC(=O)O)O[C@H](c2cccc(Cl)c2)[C@H]1c1ccc(Cl)s1 (single isomer, unassigned) [Example 218, 2-((2R,5S,6R)-4-((S)-1-(tert-butylsulfonyl)butan-2-yl)-6-(3-chlorophenyl)-5-(5-chlorothiophen-2-yl)-3-oxomorpholin-2-yl)acetic acid or 2-((2S,5S,6R)-4-((S)-1-(tert-butylsulfonyl)butan-2-yl)-6-(3-chlorophenyl)-5-(5-chlorothiophen-2-yl)-3-oxomorpholin-2-yl)acetic acid]",1
7,"O=C(O)C[C@H]1O[C@H](c2cccc(Cl)c2)[C@@H](c2ccc(Cl)cc2)N([C@H](CN(c2ccccc2F)S(=O)(=O)C2CC2)CC(F)(F)F)C1=O (single isomer, unassigned) [Example 279]",39
8,"CC(C)(C)S(=O)(=O)C[C@H](C1CCC1)N1C(=O)[C@@H](CC(=O)O)O[C@H](c2cccc(Cl)c2)[C@H]1c1ccc(Cl)cc1 (single isomer, unassigned) [Example 271, 2-((2R,5R,6R)-4-((S)-2-(tert-Butylsulfonyl)-1-cyclobutylethyl)-6-(3-chlorophenyl)-5-(4-chlorophenyl)-3-oxomorpholin-2-yl)acetic acid or 2-((2S,5R,6R)-4-((S)-2-(tert-butylsulfonyl)-1-cyclobutylethyl)-6-(3-chlorophenyl)-5-(4-chlorophenyl)-3-oxomorpholin-2-yl)acetic acid]",5
9,"O=C(O)C[C@H]1O[C@H](c2cccc(Cl)c2)[C@@H](c2ccc(Cl)cc2)N([C@H](CS(=O)(=O)N2CCOCC2)C2CC2)C1=O (single isomer, unassigned) [Example 303, 2-((2R,5R,6R)-6-(3-Chlorophenyl)-5-(4-chlorophenyl)-4-((S)-1-cyclopropyl-2-(morpholinosulfonyl)ethyl)-3-oxomorpholin-2-yl)acetic acid or 2-((2S,5R,6R)-6-(3-chlorophenyl)-5-(4-chlorophenyl)-4-((S)-1-cyclopropyl-2-(morpholinosulfonyl)ethyl)-3-oxomorpholin-2-yl)acetic acid]",1
10,"CC[C@@H](CS(=O)(=O)C(C)(C)C)N1C(=O)[C@@H](CC(=O)O)O[C@H](c2cccc(Cl)c2)[C@H]1c1ccc(Cl)s1 (single isomer, unassigned) [Example 219, 2-((2R,5S,6R)-4-((S)-1-(tert-butylsulfonyl)butan-2-yl)-6-(3-chlorophenyl)-5-(5-chlorothiophen-2-yl)-3-oxomorpholin-2-yl)acetic acid or 2-((2S,5S,6R)-4-((S)-1-(tert-butylsulfonyl)butan-2-yl)-6-(3-chlorophenyl)-5-(5-chlorothiophen-2-yl)-3-oxomorpholin-2-yl)acetic acid]",1
11,"CC[C@@H](CS(=O)(=O)C(C)(C)C)N1C(=O)[C@@H](Cc2nnn[nH]2)O[C@H](c2cccc(Cl)c2)[C@H]1c1ccc(Cl)cc1 [Example 382, (2R,5R,6R)-2-((1H-Tetrazol-5-yl)methyl)-4-((S)-1-(tert-butylsulfonyl)butan-2-yl)-6-(3-chlorophenyl)-5-(4-chlorophenyl)morpholin-3-one]",< 1
12,"C[C@@H](CS(=O)(=O)C(C)(C)C)N1C(=O)[C@@H](CC(=O)N2CCOCC2)O[C@H](c2cccc(Cl)c2)[C@H]1c1ccc(Cl)cc1 (single isomer, unassigned) [Example 236, (2R,5R,6R)-4-((S)-1-(tert-butylsulfonyl)propan-2-yl)-6-(3-chlorophenyl)-5-(4-chlorophenyl)-2-(2-morpholino-2-oxoethyl)morpholin-3-one or (2S,5R,6R)-4-((S)-1-(tert-butylsulfonyl)propan-2-yl)-6-(3-chlorophenyl)-5-(4-chlorophenyl)-2-(2-morpholino-2-oxoethyl)morpholin-3-one]",22
13,"2-((2R,5R,6R)-6-(3-chlorophenyl)-5-(4-chlorophenyl)-4-((S)-1-(N-(2-cyanophenyl)cyclopropanesulfonamido)butan-2-yl)-3-oxomorpholin-2-yl)acetic acid or 2-((2S,5R,6R)-6-(3-chlorophenyl)-5-(4-chlorophenyl)-4-((S)-1-(N-(2-cyanophenyl)cyclopropanesulfonamido)butan-2-yl)-3-oxomorpholin-2-yl)acetic acid [Example 207]",< 1
14,"C[C@@H](CS(=O)(=O)C(C)(C)C)N1C(=O)[C@@H](CC(=O)O)O[C@H](c2cc(F)cc(Cl)c2)[C@H]1c1ccc(Cl)c(F)c1 (single isomer, unassigned) [Example 424, 2-((2R,5R,6R)-4-((S)-1-(tert-Butylsulfonyl)propan-2-yl)-5-(4-chloro-3-fluorophenyl)-6-(3-chloro-5-fluorophenyl)-3-oxomorpholin-2-yl)acetic acid or 2-((2S,5R,6R)-4-((S)-1-(tert-butylsulfonyl)propan-2-yl)-5-(4-chloro-3-fluorophenyl)-6-(3-chloro-5-fluorophenyl)-3-oxomorpholin-2-yl)acetic acid]",3
15,"2-((2R,5R,6R)-6-(3-chlorophenyl)-5-(4-chlorophenyl)-4-((S)-1-(N-(2-cyanophenyl)cyclopropanesulfonamido)butan-2-yl)-3-oxomorpholin-2-yl)acetic acid or 2-((2S,5R,6R)-6-(3-chlorophenyl)-5-(4-chlorophenyl)-4-((S)-1-(N-(2-cyanophenyl)cyclopropanesulfonamido)butan-2-yl)-3-oxomorpholin-2-yl)acetic acid [Example 206]",145
16,"CC(C)(C)S(=O)(=O)C[C@H](C1CC1)N1C(=O)[C@@H](Cc2cnn[nH]2)O[C@H](c2cccc(Cl)c2)[C@H]1c1ccc(Cl)cc1 (single isomer, unassigned) [Example 386, (2R,5R,6R)-2-((1H-1,2,3-Triazol-5-yl)methyl)-4-((S)-2-(tert-butylsulfonyl)-1-cyclopropylethyl)-6-(3-chlorophenyl)-5-(4-chlorophenyl)morpholin-3-one or (2S,5R,6R)-2-((1H-1,2,3-triazol-5-yl)methyl)-4-((S)-2-(tert-butylsulfonyl)-1-cyclopropylethyl)-6-(3-chlorophenyl)-5-(4-chlorophenyl)morpholin-3-one]",13
17,"CC[C@@H](CS(=O)(=O)C(C)(C)C)N1C(=O)[C@@H](Cc2nnnn2C)O[C@H](c2cccc(Cl)c2)[C@H]1c1ccc(Cl)cc1 (single isomer, unassigned) [Example 401, (2R,5R,6R)-4-((S)-1-(tert-Butylsulfonyl)butan-2-yl)-6-(3-chlorophenyl)-5-(4-chlorophenyl)-2-((1-methyl-1H-tetrazol-5-yl)methyl)morpholin-3-one or (2R,5R,6R)-4-((S)-1-(tert-butylsulfonyl)butan-2-yl)-6-(3-chlorophenyl)-5-(4-chlorophenyl)-2-((2-methyl-2H-tetrazol-5-yl)methyl)morpholin-3-one]",38

# — patent publication US9376425B2, “Heterocyclic compounds as MDM2 inhibitors for the treatment of cancer” (AMGEN INC., priority 2011, dated 2016)
